Assay results reported in PMC7914367, “Dual-ligand supramolecular nanofibers inspired by the renin-angiotensin system for the targeting and synergistic therapy of myocardial infarction” (Theranostics, 2021).
Square brackets hold non-standard residues; d marks the D form. Ends that are not written are not given here. Peptide text beside a SMILES is read from it. * marks the point of attachment. NBD = O=[N+]([O-])c1ccc(*)c2nonc12; βAla = NCCC(=O)O

Columns and labels:
AT1R = target: T1, AT1R (Rattus norvegicus, UniProt P25095); assay: Fluorescent co-localization with AT1R in NRCMs; format: cell-based; conditions: OGD-conditioned NRCMs, 50 μM, 2 h, microscopy
T1 construct: NRCMs under OGD conditions expressed high levels of AT1R (red fluorescence); endogenous in cells; host or cells: primary neonatal rat cardiomyocytes (NRCMs) from Sprague-Dawley rats, normoxia or OGD
T1 sequence (P25095 1-359): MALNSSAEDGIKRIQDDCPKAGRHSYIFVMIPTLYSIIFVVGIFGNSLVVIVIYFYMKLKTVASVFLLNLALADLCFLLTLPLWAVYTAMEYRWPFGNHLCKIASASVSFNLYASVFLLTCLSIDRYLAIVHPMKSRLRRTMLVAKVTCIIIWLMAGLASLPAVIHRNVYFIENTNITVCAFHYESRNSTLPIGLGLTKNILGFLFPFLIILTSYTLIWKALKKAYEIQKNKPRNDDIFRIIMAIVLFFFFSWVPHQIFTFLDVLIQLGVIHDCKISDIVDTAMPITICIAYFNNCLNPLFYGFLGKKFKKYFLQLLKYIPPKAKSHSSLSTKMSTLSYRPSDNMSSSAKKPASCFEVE
Procedure: Next, the cells were blocked by incubating with goat serum for 30 min and incubated with primary antibodies overnight at 4 °C. The primary antibodies used here included anti-AT1R (1:200 dilution), anti-cTNT (1:500 dilution), anti-P65 (1:800 dilution), and anti‐α-SMA (1:400 dilution). The cells were incubated with FITC-labeled Goat Anti-Rabbit IgG (1:200 dilution) or Cy3-labeled Goat Anti-Mouse IgG (1:200 dilution) for 2 h at room temperature. The cells were counterstained with DAPI and imaged using a fluorescence microscope (Leica Dmi8, Germany).
(50 μM), SAA1-7+Tel (50 μM) and NBDAng1-7+Tel (50 μM) for further 2 h. PBS was then used to wash cells for three times and 4% paraformaldehyde was added to fix cells for 20 min at room temperature. After being blocked with goat serum for 30 min, rabbit anti-AT1R primary antibody (1:200 dilution) was added to incubat e wit h NRCMs overnight at 4 ℃. After being washed with PBS for three times, Cy3-labeled Goat Anti-Rabbit IgG (1:200 solut ion) was added and incubated with cells for 2 h at room temperature. Cells were then stained with DAPI. The fluorescence i mages were obtained by the fluorescence microscope (λexc =532 nm for AT1R, λexc = 488 nm for NBD, λexc = 405 nm for DAPI).

[1] = Critical micelle concentration by dynamic light scattering; format: physicochemical; conditions: gradient concentrations in MilliQ water
Procedure: The details are given in Supporting Information.
S1.3 Drug Loading and Encapsulation Efficiency
Tel (dissolved in DMSO) was mixed with SAA1-7 (dissolved in PBS) (pH 7.4, 10 mg/mL) at molar ratios of 15%, 30%, 50%, and 70% (n = 3). After preparation, the mixtures were analy zed using LC-MS (LCMS-20AD, Shimadzu) after lyo philization.
(§1) DL and EE were calculated using the following equation. […]
dissolved in PBS (5 mL) and th e pH was adjusted to 7.4. Proteinase K was added at a concentration of 0.138 mg/mL and the reaction m ixtures were incubated at 37 °C for 24 h. Next, 500 μL of the sample was removed at each time point and the rel ease of Tel was analyzed, while the remained SAA1-7 in the sample was analyzed using LC-MS […]
S1.4 Transmission electron microscopy
The SAA1-7 with 50% molar ratio of Tel was incubated at 40 ℃ for 0 min, 30 min, 60 min, and 120 min, respectively. TEM samples in different time points were prepared. […]
were prepared. The sample preparation procedures : 10 µL samples of each were placed on a carbon-coated copper grid and in cubated for 30 seconds to allow the peptide nanostructures to adhere to the substrate, then rinsed twice with ultrapure water. […]
(§2) The CMC values were determined by dynamic light scattering (DLS) and the light scattering intensity was recorded for each concentration. […]

[2] = TEM of nanofibers (diameter); format: physicochemical; conditions: SAA1-7 hydrogel, 1.0 wt% in PBS pH 7.4, heat-cooling
Text: To construct the dual-ligand supramolecular nanofibers, we designed and synthesized a peptide molecule NBD-^DF^DF^DY^DE^DEG-DRVYIHP (SAA1-7, Figure 1A & Figure S1) as a hydrogelator. […] SAA1-7 could self-assemble into a transparent hydrogel in PBS (pH 7.4) at a concentration of 1.0 wt% via a simple heat-cooling process, in which we observed uniform nanofibers with diameters of 7.6 ± 1.8 nm using transmission electron microscopy (TEM) (Figure S2). The drug loading efficiency and the stability of nanocarriers are attributed to the affinity between amphiphilic peptides and hydrophobic molecules. […] We measured the encapsulation efficiency (EE) and drug loading (DL) of TDCNfs. […]
Subsequently, we studied the co-assembly behaviors and the underlying mechanism of TDCNfs. […] We monitored and compared the nanostructures in the process of hydrogelation at different time points by TEM. […]
as §1
dissolved in PBS (5 mL) and th e pH was adjusted to 7.4. […] Next, 500 μL of the sample was removed at each time point and the rel ease of Tel was analyzed, while the remained SAA1-7 in the sample was analyzed using LC-MS […]
as §2

[3] = target: T2, recombinant human MasR (rhMasR) (Homo sapiens, UniProt P04201); assay: Surface plasmon resonance imaging (SPRi) binding; conditions: rhMasR immobilized on CM5 chip, analytes 0.001-10 μM in PBS
T2 construct: purchased Abnova H00004142-G01
T2 sequence (P04201 1-325): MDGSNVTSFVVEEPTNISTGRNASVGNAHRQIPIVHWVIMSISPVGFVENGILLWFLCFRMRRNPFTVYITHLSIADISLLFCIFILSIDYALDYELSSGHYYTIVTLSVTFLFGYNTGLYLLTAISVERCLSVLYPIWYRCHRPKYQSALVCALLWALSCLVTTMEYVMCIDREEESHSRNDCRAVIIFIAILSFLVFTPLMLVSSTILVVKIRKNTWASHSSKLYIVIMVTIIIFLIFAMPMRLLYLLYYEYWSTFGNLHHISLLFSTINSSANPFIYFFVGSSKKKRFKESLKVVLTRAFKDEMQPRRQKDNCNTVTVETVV

MI mouse model [4] = assay: In vivo mechanism: caspase-3 IHC, α-SMA immunofluorescence, type I collagen, TGF-β1, serum cytokines; design: species or system C57BL/6 mice; conditions: MI mice, 4 weeks post-treatment, immunofluorescence, n = 5
Procedure: Frozen sections were prepared in vivo, as described previously. For drugs distribution, near-infrared laser imager (GE Amersham Typhoon, Sweden) was used to capture full cross section of hearts. For co-localization experiments, the mice hearts were dissected 24 h post-injection of drugs. Anti-AT1R primary antibody (1:200 dilution) was used as the primary antibody. For fibrosis investigation, the frozen sections were incubated with primary antibodies against α-SMA (1:400 dilution). The staining signals were visualized using FITC-labeled Goat Anti-Rabbit IgG (1:200 dilution) or Cy3-labeled Goat Anti-Rabbit IgG (1:200 dilution). The sections were counterstained with DAPI and examined under a laser confocal scanning microscope (Leica TCS SP8, Germany).
The heart tissues were fixed in 4% paraformaldehyde, dehydrated in ethanol, cleared in xylene, and embedded in paraffin. The samples were then cut into 6 μm sections on a microtome and deparaffinized. The sections were blocked by incubating with 1% BSA at room temperature for 30 min and then incubated overnight with anti-cleaved caspase-3 (1:700 dilution), anti-AT1R (1:100 dilution), anti-Collagen I (1:200 dilution) at 4 °C. Next, the sections were washed and incubated with secondary antibodies (1:500 dilution) at room temperature. The tissue sections were incubated with diaminobenzidine and counterstained with hematoxylin, dehydrated, and mounted before viewing under a microscope.
The serum and CM were collected at the indicated time points from the different groups of mice. The levels of TNF-α, IL-6, ALT, Cre, and TGF-β1 were measured using ELISA kits according to the manufacturer's protocol. The absorbance was measured at 450 nm using a microplate reader.

NRCMs = assay: TUNEL staining of OGD NRCMs; format: cell-based, rat; conditions: 10 μM, 2-3 h, OGD group 26.70%, n = 3
MI mouse model [5] = assay: Masson's trichrome staining, infarct size; format: in vivo, C57BL/6 mice; conditions: MI mice, 4 weeks, collagen area/LV area, MI group 36.60%, vehicle 1219.84 μg/kg, n = 5
Procedure: Adult male C57BL/6 mice (20-30 g, 8-10 week) were purchased from the laboratory animal center of Southern Medical University, China. The protocols were approved according to the Zhujiang Hospital of Southern Medical University animal care and use committee guidelines, which conform to the guide for the care and use of laboratory animals published by the US National Institutes of Health (8th edition, 2011). […] Next, 100 µL of different drugs were administered intravenously through tail vein injection every 2 days for 3 weeks, while the mice in the Sham and MI groups were treated with an equal volume of PBS.
The mice were sacrificed at 4 weeks after the induction of MI, and hearts and major organs were harvested and fixed in 4% paraformaldehyde overnight and embedded in paraffin. The hearts were sectioned to 5 µm along the short axis transversely across the infarct zone. The major organs were sectioned to 5 µm along the short axis. Following deparaffinization and dehydration, the samples underwent H&E and Masson's trichrome staining. The sections were observed under a microscope to evaluate the therapeutic effect and safety of the drugs. The collagen and LV areas were measured using the Image-Pro Plus software (version 6.0; Media Cybernetics, Silver Spring, MD, USA). Infarct size (%) was calculated as the ratio of the collagen area to the LV area.

[6] = target: T3, recombinant human MasR (Recombinant Human MAS1 protein) (human) (UniProt P04201); assay: SPR; SPR imaging (SPRi, PlexArray HT); rhMasR immobilised on a CM5 sensor chip; Ang1-7, SAA1-7 and TDCNfs diluted in PBS at 0.001 to 10 μM
T3 sequence (P04201 whole entry, looked up): T2 sequence (P04201 1-325)

NBDAng1-7: Ang1-7 endowed with fluorescence by NBD labeling
co-localization with AT1R (AT1R): slightly overlapped signal

CC[C@H](C)[C@H](NC(=O)[C@H](Cc1ccc(O)cc1)NC(=O)[C@@H](NC(=O)[C@H](CCCNC(=N)N)NC(=O)[C@H](CC(=O)O)NC(=O)CNC(=O)[C@@H](CCC(=O)O)NC(=O)[C@@H](CCC(=O)O)NC(=O)[C@@H](Cc1ccc(O)cc1)NC(=O)[C@@H](Cc1ccccc1)NC(=O)[C@@H](Cc1ccccc1)NC(=O)CCNc1ccc([N+](=O)[O-])c2nonc12)C(C)C)C(=O)N[C@@H](Cc1c[nH]cn1)C(=O)N1CCC[C@H]1C(=O)O [SAA1-7, NBD-^DF^DF^DY^DE^DEG-DRVYIHP] ({NBD-βAla}-[dF][dF][dY][dE][dE]GDRVYIHP-OH)
critical micelle concentration (CMC) [1]: 21.95 µM
co-localization with AT1R (AT1R): slightly overlapped signal
nanofiber diameter (TEM) [2]: 7.6 ± 1.8 nm
Kd [3]: 12.6 nM

NBD-DFDFDYDEDEG-YRVIPHD [vehicle]
α-SMA expression in the non-infarcted area (MI mouse model [4]): inhibited to a certain extent
TUNEL-positive NRCMs (NRCMs): 23.5%
infarct size (MI mouse model [5]): 32.92%

CC[C@H](C)[C@H](NC(=O)[C@H](Cc1ccc(O)cc1)NC(=O)[C@@H](NC(=O)[C@H](CCCNC(=N)N)NC(=O)[C@@H](N)CC(=O)O)C(C)C)C(=O)N[C@@H](Cc1c[nH]cn1)C(=O)N1CCC[C@H]1C(=O)O [Ang1-7, DRVYIHP]
Kd [3]: 10.3 nM

{NBD}-[dF][dF][dY][dE][dE]GDRVYIHP [self-assembly angiotensin 1-7 (NBD-DF-DF-DY-DE-DE-G-DRVYIHP)]
Kd [6]: 12.6 nM
binding value (RU) [6]: 62.3 RU

{NBD}-[dF][dF][dY][dE][dE]GDRVYIHP (also: co-assembly nanofibers doped with telmisartan) [telmisartan-doped co-assembly nanofibers]
Kd [6]: 16.5 nM
binding value (RU) [6]: 58.2 RU

DRVYIHP [angiotensin 1-7]
Kd [6]: 10.3 nM
binding value (RU) [6]: 65.1 RU
